Measurements taken from patent US8119630B2 (Arrow Therapeutics Limited, priority 2002, dated 2012).

Legend:
RSV = assay: XTT assay, RSV-infected Hep-2 cells; format: cell-based, Respiratory Syncytial Virus (RSV); conditions: Table 2, Examples 75 to 82 and 125 to 184, Hep-2 cells infected with RSV, 6 days at 37° C.
Method in brief: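 Hep-2 cells (4×10^4/well) infected with RSV titrated for 80% cell kill and treated with 25 μM compound (0.5% DMSO) for 6 days at 37 °C. Viability read by XTT/PMS at OD450 after 1 h; uninfected control set as 100% and infected control as 0% inhibition, with IC50 from graph or regression.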

Hep-2 cells = assay: Toxicity studies (XTT), Hep-2 cells; format: cell-based; parameters: TC50 (6d): unit not given beside the values; conditions: for TC50 (2d): Table 2, Examples 75 to 82 and 125 to 184, 2d; for TC50 (6d): Table 2, Examples 75 to 82 and 125 to 184, 6d, in µM
[1] = human respiratory syncytial virus, 144 h

Row | Compound | IC50 (RSV) | TC50 (2d) (Hep-2 cells) | IC50 (RSV; [1]) | TC50 (6d) (Hep-2 cells)
1 | COc1ccc(S(N)(=O)=O)cc1C(=O)NC1N=C(c2ccccc2)c2ccccc2NC1=O (stereo not shown) [Example 143, 2-Methoxy-N-(2-oxo-5-phenyl-2,3-dihydro-1H-benzo[e][1,4]diazepin-3-yl)-5-sylfamoyl-benzamide] | 3.8 µM | > 50 µM |  | 
2 | CCCCNC(=O)NC1N=C(c2ccccc2)c2ccccc2NC1=O (stereo not shown) [Example 151, 1-Butyl-3-(2-oxo-5-phenyl-2,3-dihydro-1H-benzo[e][1,4]diazepin-3-yl)-urea] |  | > 100 µM | 1.5 µM | >100
3 | 5-Acetyl-2-ethoxy-N-(2-oxo-5-phenyl-2,3-dihydro-1H-benzo[e][1,4]diazepin-3-yl)-benzamide [Example 76a] | 3.5 µM |  |  | 64
4 | O=C(NC1N=C(c2ccccc2)c2ccccc2NC1=O)c1ccccc1I (stereo not shown) [Example 138, 2-Iodo-N-(2-oxo-5-phenyl-2,3-dihydro-1H-benzo[e][1,4]diazepin-3-yl)-benzamide] |  |  | 8.3 µM | 51
5 | O=C1Nc2ccc(Cl)cc2C(c2ccccc2)=NC1NC(=O)N1CCCCC1 (stereo not shown) [Example 153, Piperidine-1-carboxylic acid (7-chloro-2-oxo-5-phenyl-2,3-dihydro-1H-benzo[p][1,4]diazepin-3-yl)-amide] | 5 µM | > 100 µM |  | >100
6 | CCOC(=O)NC1N=C(c2ccccc2)c2ccccc2NC1=O (stereo not shown) [Example 182, (2-Oxo-5-phenyl-2,3-dihydro-1H-benzo[e][1,4]diazepin-3-yl)-carbamic acid ethyl ester] |  |  | 10 µM | >50
7 | Cc1ccc2c(c1)NC(=O)C(NC(=O)c1cccs1)N=C2c1ccccc1 (stereo not shown) [Example 169, Thiophene-2-carboxylic acid (8-methyl-2-oxo-5-phenyl-2,3-dihydro-1H-benzo[e][1,4]diazepin-3-yl)-amide] |  | 50 µM | 5 µM | 30
8 | O=C(Nc1cccc(C(F)(F)F)c1)NC1N=C(c2ccccc2)c2ccccc2NC1=O (stereo not shown) [Example 130, 1-(2-Oxo-5-phenyl-2,3-dihydro-1H-benzo[e][1,4]diazepin-3-yl)-3-(3-trifluoromethyl-phenyl)-urea] |  |  | 9.7 µM | 39.5
9 | COc1cc2ccccc2cc1C(=O)N[C@H]1N=C(c2ccccc2)c2ccccc2NC1=O [Example 82b, (S)-3-Methoxy-naphthalene-2-carboxylic acid (2-oxo-5-phenyl-2,3-dihydro-1H-benzo[e][1,4]diazepin-3-yl)-amide] |  |  | 1.5 µM | >50
10 | COc1cc(C(F)(F)F)ccc1C(=O)N[C@H]1N=C(c2ccccc2)c2ccccc2NC1=O [Example 78, (S)-2-Methoxy-N-(2-oxo-5-phenyl-2,3-dihydro-1H-benzo[e][1,4]diazepin-3-yl)-4-trifluoromethyl-benzamide] |  |  | 2.7 µM | 32.5
11 | CSc1ccccc1C(=O)NC1N=C(c2ccccc2)c2ccccc2NC1=O (stereo not shown) [Example 142, 2-Methylsulfanyl-N-(2-oxo-5-phenyl-2,3-dihydro-1H-benzo[e][1,4]diazepin-3-yl)-benzamide] |  |  | 9.4 µM | >50
